Experimental data reported in patent publication US20240158446A1, “CYCLIC COMPOUND HAVING SELECTIVE INHIBITORY ACTION ON KRAS OVER HRAS AND NRAS” (CHUGAI SEIYAKU KABUSHIKI KAISHA, priority 2021, published 2024).

Experiments:
[1] = target: GDP-bound NRAS wild-type protein (Homo sapiens, UniProt P01111); experiment: Binding to NRAS by surface plasmon resonance (SPR), Single Cycle Kinetics; conditions: SPR; GDP-bound NRAS wild-type protein vs GDP-bound KRAS wild-type protein; KD ratio class
[2] = target: GDP-bound HRAS wild-type protein (Homo sapiens, UniProt P01112); experiment: Binding to HRAS by surface plasmon resonance (SPR), Single Cycle Kinetics; conditions: SPR; GDP-bound HRAS wild-type protein vs GDP-bound KRAS wild-type protein; KD ratio class
[3] = system: human lung cancer strain NCI-H441;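 note: cell proliferation inhibition after four days measured by CellTiter-Glo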
[4] = target: GDP-bound KRAS wild-type protein (Homo sapiens, UniProt P01116); experiment: Binding to KRAS by surface plasmon resonance (SPR), Single Cycle Kinetics; conditions: SPR, Single Cycle Kinetics, 1:1 binding model; GDP-bound KRAS wild-type protein; read-out: KRAS KD
Chain of GDP-bound KRAS wild-type protein (P01116 whole entry): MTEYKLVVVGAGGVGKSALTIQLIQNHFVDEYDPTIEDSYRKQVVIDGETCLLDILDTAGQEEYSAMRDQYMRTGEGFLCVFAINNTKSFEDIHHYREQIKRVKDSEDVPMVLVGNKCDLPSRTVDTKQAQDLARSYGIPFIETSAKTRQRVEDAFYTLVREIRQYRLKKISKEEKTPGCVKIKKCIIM

Chain of GDP-bound HRAS wild-type protein (P01112 whole entry): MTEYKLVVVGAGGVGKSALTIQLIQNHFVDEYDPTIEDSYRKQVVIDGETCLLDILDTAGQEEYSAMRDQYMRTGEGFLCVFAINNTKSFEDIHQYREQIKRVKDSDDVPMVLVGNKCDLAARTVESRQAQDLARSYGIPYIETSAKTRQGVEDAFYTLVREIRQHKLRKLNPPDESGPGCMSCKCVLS
Chain of GDP-bound NRAS wild-type protein (P01111 whole entry): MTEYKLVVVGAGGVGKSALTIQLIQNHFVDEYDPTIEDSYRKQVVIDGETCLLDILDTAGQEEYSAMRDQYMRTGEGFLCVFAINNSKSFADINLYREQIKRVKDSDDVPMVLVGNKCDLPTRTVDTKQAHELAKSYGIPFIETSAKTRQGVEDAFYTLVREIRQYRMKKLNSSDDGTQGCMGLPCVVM

Compound | NRAS/KRAS (ratio of KD value for NRAS to KD value for KRAS) [1] | HRAS/KRAS (ratio of KD value for HRAS to KD value for KRAS) [2] | IC50 [3] | Kd [4]
CC[C@H](C)[C@@H]1NC(=O)[C@H](CC)N(C)C(=O)C[C@@H](C(=O)N2CCOCC2)N(C)C(=O)[C@H](C2CCCC2)N(C)C(=O)C2(CCC2)NC(=O)[C@@H]2CCCN2C(=O)[C@H](CCc2ccc(C(F)(F)F)c(Cl)c2)NC(=O)CN(C)C(=O)[C@H](Cc2ccc(C(F)(F)F)cc2)N2C[C@H](C)CC[C@@H](C2=O)N(C)C(=O)CN(C)C1=O [PP1338] | B (a compound having 3 or more and less than 10 is denoted as B) | B (a compound having 3 or more and less than 10 is denoted as B) | 35 nM | 0.14 nM
C#CC[C@H]1C(=O)N[C@@H]([C@@H](C)CC)C(=O)N(C)CC(=O)N(C)[C@H]2CC[C@@H](C)CN(C2=O)[C@@H](Cc2ccc(C(F)(F)F)cc2)C(=O)N(C)CC(=O)N[C@@H](CCc2ccc(C(F)(F)F)c(Cl)c2)C(=O)N2CCC[C@H]2C(=O)NC2(CCCC2)C(=O)N(C)[C@@H](C2CCCC2)C(=O)N(C)[C@H](C(=O)N(C)C)CC(=O)N1C [PP1340] | B (a compound having 3 or more and less than 10 is denoted as B) | B (a compound having 3 or more and less than 10 is denoted as B) | 10.9 nM | 0.081 nM
CC[C@H](C)[C@@H]1NC(=O)[C@H](CC2CC2)N(C)C(=O)C[C@@H](C(=O)N2CCOCC2)N(C)C(=O)[C@H](C2CCCC2)N(C)C(=O)C2(CCC2)NC(=O)[C@@H]2CCCN2C(=O)[C@H](CCc2ccc(C(F)(F)F)c(Cl)c2)NC(=O)CN(C)C(=O)[C@H](Cc2ccc(C(F)(F)F)cc2)N2C[C@H](C)CC[C@@H](C2=O)N(C)C(=O)[C@@H]2CCN2C1=O [PP1341] | A (a compound having 10 or more and less than 20 is denoted as A) | B (a compound having 3 or more and less than 10 is denoted as B) | 46.3 nM | 0.81 nM
CC[C@H](C)[C@@H]1NC(=O)[C@H](CC2CCC2)N(C)C(=O)C[C@@H](C(=O)N(C)C)N(C)C(=O)[C@H](C2CCCC2)N(C)C(=O)C2(CCCC2)NC(=O)[C@@H]2CCCN2C(=O)[C@H](CCc2ccc(C(F)(F)F)c(Cl)c2)NC(=O)CN(C)C(=O)[C@H](Cc2ccc(C(F)(F)F)cc2)N2C[C@H](C)CC[C@@H](C2=O)N(C)C(=O)CN(C)C1=O [PP1342] | B (a compound having 3 or more and less than 10 is denoted as B) | B (a compound having 3 or more and less than 10 is denoted as B) | 5 nM | 0.091 nM
CC[C@H](C)[C@@H]1NC(=O)[C@H](CC2CC2)N(C)C(=O)C[C@@H](C(=O)N2CCOCC2)N(C)C(=O)[C@H](C2CCCC2)N(C)C(=O)C2(CCCC2)NC(=O)[C@@H]2CCCN2C(=O)[C@H](CCc2ccc(C(F)(F)F)c(Cl)c2)NC(=O)CN(C)C(=O)[C@H](Cc2ccc(C(F)(F)F)cc2)N2C[C@H](C)CC[C@@H](C2=O)N(C)C(=O)CN(C)C1=O [PP1343] | A (a compound having 10 or more and less than 20 is denoted as A) | B (a compound having 3 or more and less than 10 is denoted as B) | 19.3 nM | 0.27 nM
CC[C@H](C)[C@@H]1NC(=O)[C@H](CC2CC2)N(C)C(=O)C[C@@H](C(=O)N2CCOCC2)N(C)C(=O)[C@H](C2CCCC2)N(C)C(=O)C2(CCC2)NC(=O)[C@@H]2CCCN2C(=O)[C@H](CCc2ccc(C(F)(F)F)c(Cl)c2)NC(=O)CN(C)C(=O)[C@H](Cc2ccc(C(F)(F)F)cc2)N2C[C@H](C)CC[C@@H](C2=O)N(C)C(=O)CN(C)C1=O [PP1344] | B (a compound having 3 or more and less than 10 is denoted as B) | B (a compound having 3 or more and less than 10 is denoted as B) | 16.7 nM | 0.14 nM
CC[C@H](C)[C@@H]1NC(=O)[C@H](CC2CCC2)N(C)C(=O)C[C@@H](C(=O)N2CCOCC2)N(C)C(=O)[C@H](C2CCCC2)N(C)C(=O)C2(CCC2)NC(=O)[C@@H]2CCCN2C(=O)[C@H](CCc2ccc(C(F)(F)F)c(Cl)c2)NC(=O)CN(C)C(=O)[C@H](Cc2ccc(C(F)(F)F)cc2)N2C[C@H](C)CC[C@@H](C2=O)N(C)C(=O)[C@@H]2CCN2C1=O [PP1345] | A (a compound having 10 or more and less than 20 is denoted as A) | B (a compound having 3 or more and less than 10 is denoted as B) | 34.8 nM | 0.71 nM
CC[C@H](C)[C@@H]1NC(=O)[C@H](CC2CC2)N(C)C(=O)C[C@@H](C(=O)N(C)C)N(C)C(=O)[C@H](C2CCCC2)N(C)C(=O)C2(CCCC2)NC(=O)[C@@H]2CCCN2C(=O)[C@H](CCc2ccc(C(F)(F)F)c(Cl)c2)NC(=O)CN(C)C(=O)[C@H](Cc2ccc(C(F)(F)F)cc2)N2C[C@H](C)CC[C@@H](C2=O)N(C)C(=O)CN(C)C1=O [PP1346] | B (a compound having 3 or more and less than 10 is denoted as B) | B (a compound having 3 or more and less than 10 is denoted as B) | 7.2 nM | 0.084 nM
CCO[C@@H]1C[C@H]2C(=O)NC3(CCC3)C(=O)N(C)[C@@H](C3CCCC3)C(=O)N(C)[C@H](C(=O)N3CCOCC3)CC(=O)N(C)[C@@H](CC)C(=O)N[C@@H]([C@@H](C)CC)C(=O)N3CC[C@H]3C(=O)N(C)[C@H]3C[C@@H](C)[C@@H](C)CN(C3=O)[C@@H](Cc3ccc(C(F)(F)F)cc3)C(=O)N(C)CC(=O)N[C@@H](CCc3cc(F)c(C(F)(F)F)c(F)c3)C(=O)N2C1 [PP1351] | A (a compound having 10 or more and less than 20 is denoted as A) | B (a compound having 3 or more and less than 10 is denoted as B) | 12.8 nM | 0.13 nM
CCO[C@@H]1C[C@H]2C(=O)NC3(CCCC3)C(=O)N(C)[C@@H](C3CCCC3)C(=O)N(C)[C@H](C(=O)N(C)C)CC(=O)N(C)[C@@H](CC)C(=O)N[C@@H]([C@@H](C)CC)C(=O)N(C)CC(=O)N(C)[C@H]3C[C@@H](C)[C@@H](C)CN(C3=O)[C@@H](Cc3ccc(C(F)(F)F)cc3)C(=O)N(C)CC(=O)N[C@@H](CCc3cc(F)c(C(F)(F)F)c(F)c3)C(=O)N2C1 [PP1352] | A (a compound having 10 or more and less than 20 is denoted as A) | B (a compound having 3 or more and less than 10 is denoted as B) | 4.6 nM | 0.024 nM
CCO[C@@H]1C[C@H]2C(=O)NC3(CCCC3)C(=O)N(C)[C@@H](C3CCCC3)C(=O)N(C)[C@H](C(=O)N3CCOCC3)CC(=O)N(C)[C@@H](CC)C(=O)N[C@@H]([C@@H](C)CC)C(=O)N(C)CC(=O)N(C)[C@H]3C[C@@H](C)[C@@H](C)CN(C3=O)[C@@H](Cc3ccc(C(F)(F)F)cc3)C(=O)N(C)CC(=O)N[C@@H](CCc3cc(F)c(C(F)(F)F)c(F)c3)C(=O)N2C1 [PP1353] | A (a compound having 10 or more and less than 20 is denoted as A) | B (a compound having 3 or more and less than 10 is denoted as B) | 3.7 nM | 0.1 nM
CCO[C@@H]1C[C@H]2C(=O)NC3(CCC3)C(=O)N(C)[C@@H](C3CCCC3)C(=O)N(C)[C@H](C(=O)N3CCOCC3)CC(=O)N(C)[C@@H](CC)C(=O)N[C@@H]([C@@H](C)CC)C(=O)N(C)CC(=O)N(C)[C@H]3C[C@@H](C)[C@@H](C)CN(C3=O)[C@@H](Cc3ccc(C(F)(F)F)cc3)C(=O)N(C)CC(=O)N[C@@H](CCc3cc(F)c(C(F)(F)F)c(F)c3)C(=O)N2C1 [PP1354] | A (a compound having 10 or more and less than 20 is denoted as A) | B (a compound having 3 or more and less than 10 is denoted as B) | 3.6 nM | 0.056 nM
CCO[C@@H]1C[C@H]2C(=O)NC3(CCC3)C(=O)N(C)[C@@H](C3CCCC3)C(=O)N(C)[C@H](C(=O)N3CCOCC3)CC(=O)N(C)[C@@H](CC(C)C)C(=O)N[C@@H]([C@@H](C)CC)C(=O)N3CC[C@H]3C(=O)N(C)[C@H]3C[C@@H](C)[C@@H](C)CN(C3=O)[C@@H](Cc3ccc(C(F)(F)F)cc3)C(=O)N(C)CC(=O)N[C@@H](CCc3cc(F)c(C(F)(F)F)c(F)c3)C(=O)N2C1 [PP1355] | A (a compound having 10 or more and less than 20 is denoted as A) | B (a compound having 3 or more and less than 10 is denoted as B) | 10.2 nM | 0.16 nM
